According to US9993482B2, “Pharmaceutical combination comprising a class III receptor tyrosine kinase inhibitor and the alkylating histone-deacetylase inhibitor fusion molecule EDO-S101 together with its use in the treatment of cancer” (priority 2014, dated 2018):
Like-named read-outs stand apart in the source and are kept apart here.

Legend:
[1] = system: acute myeloid leukemia cell line MV-4-11; assay: MV-4-11 cell survival, CellTiter-Glo, single drug testing; type: cell-based; settings: Homo sapiens, MV4-11, 72 h
Procedure: Culture media was purchased from GIBCO, USA.
(§1) Equipment used was the EnVision Multi Label Reader, PerkinElmer (USA). CO2 Water Jacketed Incubator, Therma (USA). Reverse microscope, Chongguang XDS-1B, Chongqing Guangdian Corp. (Chongqing, P.R.China).
(§2) The cells were harvested respectively during the logarithmic growth period and counted with a hemocytometer.
(§3) For single drug testing, the cell concentrations were adjusted to 4.44×10^4 cells/ml with the medium supplemented with 10% FBS. 90 μl cell suspensions were added to 96-well plates, such that the final cell density was 4×10^3 cells/well. The appropriate cell density was determined and adjusted according to the results of our first test.
The next day, 10 μl (10×) of drug solution was prepared and dispensed in each well (triplicate for each drug concentration). […] The contents were mixed for 2 minutes on an orbital shaker to induce cell lysis. The plate was allowed to incubate at room temperature for 10 minutes to stabilize the luminescent signal. Finally, the luminescence was recorded using an EnVision Multi Label Reader.
(§4) In order to calculate IC50, a dose-responsive curve was fitted using nonlinear regression model with a sigmoidal dose response. The formula of surviving rate is shown below, and the IC50 was automatically produced by GraphPad Prism 5.0.

[2] = system: acute myeloid leukemia cell line MV-4-11; assay: MV-4-11 cell survival, CellTiter-Glo, two drug combination testing (CalcuSyn); type: cell-based; settings: MV-4-11, 72 h, combination ratio 1:0.00120494
Procedure: (§5) The acute myeloid leukemia cell line MV-4-11 (obtained from the ATCC) was cultured in media supplemented with 10% fetal bovine serum (FBS) at a temperature of 37° C., 5% CO2 and 95% humidity. Culture media was purchased from GIBCO, USA. The cells were plated out in 96-Well Flat Clear Bottom Black Polystyrene TC-Treated Microplates (Cat#3603, Corning®).
as §1
(§6) The cells were harvested respectively during the logarithmic growth period and counted with a hemocytometer. The cell viability is over 98% by trypan blue exclusion.
(§7) For two drug combination testing, the cell concentrations were adjusted to 5.00×10^4/ml with the medium supplemented with 10% FBS. 80 μl cell suspensions were added to 96-well plates, such that the final cell densities were 4×10^3 cells/well. The appropriate cell density was determined and adjusted according to the results of our first test.
The next day, 10 μl (10×) of each drug solution was prepared and dispense in each well simultaneously (triplicate for each concentration). After 72 h incubation, 100 μL […]-GLO® Reagent was added to each well. The contents were mixed for 2 minutes on an orbital shaker to induce cell lysis. The plate was allowed to incubate at room temperature for 10 minutes to stabilize luminescent signal. Then the luminescence was recorded using EnVision Multi Label Reader.
as §4, with “5.0. The surviving rate (%)=(LumTest article−LUMMedium control)/(LUMNone treated−LUMMedium control)×100%.” for “5.0.”
(§8) Compound interactions were calculated by multiple drug effect analysis and performed by the median equation principle with CalcuSyn software from the mean affected fraction at each drug ratio concentration of each drug according to the methodology described by Chou and Talalay (Chou et al., Adv. Enzyme Regul., 22, 27-55 (1984)), that calculates a combination index (CI) with the following interpretation: • CI>1: antagonist effect, CI=1: additive effect and CI<1 synergistic effect.
(§9) The CI was calculated from the mean affected fraction at each drug ratio concentration of each drug.

[3] = system: acute myeloid leukemia cell line MOLM-13; assay: MOLM-13 cell survival, CellTiter-Glo, single drug testing; type: cell-based; settings: Homo sapiens, MOLM-13, 72 h
Procedure: as §5, with “MOLM-13” for “MV-4-11”, “FBS” for “fetal bovine serum (FBS)”, “[…]” for “TC-Treated”
as §1, §2, §3
The next day, 10 μl (10×) of drug solution was prepared and dispensed in each well (triplicate for each drug concentration). After 72 h incubation, 100 μl CellTiter-Glow Reagent was added to each well. The contents were mixed for 2 minutes on an orbital shaker to induce cell lysis. The plate was allowed to incubate at room temperature for 10 minutes to stabilize the luminescent signal. Finally, the luminescence was recorded using an EnVision Multi Label Reader.
as §4, with “5.0. The surviving rate (%)=(LumTest article−LUMMedium control)/(LumNone treated−LUMMedium control)×100%.” for “5.0.”

[4] = system: acute myeloid leukemia cell line MOLM-13; assay: MOLM-13 cell survival, CellTiter-Glo, two drug combination testing (CalcuSyn); type: cell-based; settings: MOLM-13, 72 h, combination ratio 1:0.00264302
Procedure: as §5, with “MOLM-13” for “MV-4-11”, “FBS” for “fetal bovine serum (FBS)”, “[…]” for “TC-Treated”
as §1, §6, §7
The next day, 10 μl (10×) of each drug solution was prepared and dispense in each well simultaneously (triplicate for each concentration). After 72 h incubation, 100 μl CellTiter-Glo® Reagent was added to each well. The contents were mixed for 2 minutes on an orbital shaker to induce cell lysis. The plate was allowed to incubate at room temperature for 10 minutes to stabilize luminescent signal. Then the luminescence was recorded using EnVision Multi Label Reader.
as §4, with “5.0. The surviving rate (%)=(LumTest article−LUMMedium control)/(LumNone treated−LUMMedium control)×100%.” for “5.0.”
as §8, with “Talalay,” for “Talalay (Chou et al., Adv. Enzyme Regul., 22, 27-55 (1984)),”
as §9

[5] = system: multiple myeloma cell lines; settings: in vitro; cited from earlier work

SMILES	IC50 [1] [nM]	DRI values at ED75 [2]	DRI values at ED90 [2]	IC50 ([3]; FIG. 3 single drug test using different doses (at 1:2 serial dilutions)) [nM]	IC50 ([3]; FIG. 3 single drug test with cisplatin control) [nM]	DRI values at ED75 [4]	DRI values at ED90 [4]	activity relative to bendamustin (times greater) [5]	IC50 ([1]; read-out: IC50) [nM]	IC50 ([3]; FIG. 3 single drug test using different doses (at 1:2 serial dilutions), read-out: IC50) [nM]	IC50 ([3]; FIG. 3 single drug test with cisplatin control, read-out: IC50) [nM]
Cn1c(CCCCCCC(=O)NO)nc2cc(N(CCCl)CCCl)ccc21 [EDO-S101]	668	1.368	1.482	1720	708	5.925	8.534	35-100	–	–	–
CC(C)(C)c1cc(NC(=O)Nc2ccc(-c3cn4c(n3)sc3cc(OCCN5CCOCC5)ccc34)cc2)no1 [quizartinib, reference compound]	–	6.146	10.760	–	–	3.215	6.645	–	0.804	4.55	2.11
